Data from PubChem BioAssay AID248 (DTP/NCI, 2004).
Values joined by “and” are separate entries in the source; they are usually repeats but may differ in a detail not shown here. Equal entries are not always repeated. Toxic doses and inconclusive results are not listed. Rule as the data show it: active = T/C of 150% or more; inactive = T/C below 125%.

System: L1210 leukemia ip in BDF1 mice, survival T/C
Test: NCI In Vivo Anticancer Drug Screen. Data for tumor model L1210 Leukemia (intraperitoneal) in B6D2F1 (BDF1) mice
Conditions: endpoint: mean survival time, higher = longer survival
Method in brief: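 Transplantable tumor model; survival measured in treated vs vehicle control mice. Value = treated/control.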

[1] = dose: 100.0 mg/kg/injection, schedule: Q01DX001 (ip), vehicle: saline with Tween-80
[2] = dose: 100.0 mg/kg/injection, schedule: Q04DX003 (ip), vehicle: Klucel (hydroxypropylcellulose) (HPC)
[3] = dose: 200.0 mg/kg/injection, schedule: Q04DX003 (ip), vehicle: Klucel (hydroxypropylcellulose) (HPC)
[4] = dose: 400.0 mg/kg/injection, schedule: Q04DX003 (ip), vehicle: Klucel (hydroxypropylcellulose) (HPC)
[5] = dose: 100.0 mg/kg/injection, schedule: Q04DX002 (ip), vehicle: saline with Tween-80
[6] = dose: 100.0 mg/kg/injection, schedule: Q04DX003 (ip), vehicle: saline with Tween-80
[7] = dose: 200.0 mg/kg/injection, schedule: Q04DX003 (ip), vehicle: saline with Tween-80
[8] = dose: 400.0 mg/kg/injection, schedule: Q04DX003 (ip), vehicle: saline with Tween-80
[9] = dose: 100.0 mg/kg/injection, schedule: Q01DX009 (ip), vehicle: Klucel (hydroxypropylcellulose) (HPC)
[10] = dose: 200.0 mg/kg/injection, schedule: Q01DX009 (ip), vehicle: Klucel (hydroxypropylcellulose) (HPC)
[11] = dose: 400.0 mg/kg/injection, schedule: Q01DX009 (ip), vehicle: Klucel (hydroxypropylcellulose) (HPC)
[12] = dose: 100.0 mg/kg/injection, schedule: Q01DX001 (ip), vehicle: saline
[13] = dose: 200.0 mg/kg/injection, schedule: Q01DX001 (ip), vehicle: saline
[14] = dose: 100.0 mg/kg/injection, schedule: Q01DX001 (ip), vehicle: carboxymethylcellulose (CMC)
[15] = dose: 200.0 mg/kg/injection, schedule: Q01DX001 (ip), vehicle: carboxymethylcellulose (CMC)
[16] = dose: 400.0 mg/kg/injection, schedule: Q01DX001 (ip), vehicle: carboxymethylcellulose (CMC)

Measured: T/C

O=C1c2ccccc2C(=O)N1Cc1ncn[nH]1
inactive: [1] 100 % of control | dose: 200.0 mg/kg/injection, schedule: Q01DX001 (ip), vehicle: saline with Tween-80 96 % of control | dose: 400.0 mg/kg/injection, schedule: Q01DX001 (ip), vehicle: saline with Tween-80 91 % of control

OCC1OC(n2cc(Br)c3c(NO)ncnc32)C(O)C1O (stereo not given)
inactive: dose: 5.0 mg/kg/injection, schedule: Q01DX001 (ip), vehicle: saline 103 % of control | dose: 10.0 mg/kg/injection, schedule: Q01DX001 (ip), vehicle: saline 101 % of control

CC(=O)NC1CCCCC1CC1CCCCC1 (stereo not given)
inactive: dose: 75.0 mg/kg/injection, schedule: Q01DX009 (ip), vehicle: Klucel (hydroxypropylcellulose) (HPC) 103 % of control | [2] 102 % of control | dose: 150.0 mg/kg/injection, schedule: Q01DX009 (ip), vehicle: Klucel (hydroxypropylcellulose) (HPC) 93 % of control | [3] 98 % of control | dose: 300.0 mg/kg/injection, schedule: Q01DX009 (ip), vehicle: Klucel (hydroxypropylcellulose) (HPC) 96 % of control | [4] 98 % of control

CCCCSCCSC(=N)N
inactive: dose: 25.0 mg/kg/injection, schedule: Q04DX002 (ip), vehicle: saline with Tween-80 100 % of control | dose: 50.0 mg/kg/injection, schedule: Q04DX002 (ip), vehicle: saline with Tween-80 103 % of control | [5] 103 % of control

C[Si](C)(C)Oc1cccc(O[Si](C)(C)C)c1
inactive: [6] 95 % of control | [7] 96 % of control | [8] 93 % of control

CN1C(=O)CC(NC(=O)OCc2ccccc2)C1=O (stereo not given)
inactive: [6] 95 % of control | [7] 103 % of control | [8] 96 % of control

CCOC(=O)NC(CC)CO (stereo not given)
inactive: [9] 96 % of control | [2] 96 % of control | [10] 92 % of control | [3] 104 % of control | [11] 108 % of control | [4] 96 % of control

CC1(C)OCC(COCc2ccccc2)O1 (stereo not given)
inactive: [6] 96 % of control | [7] 104 % of control | [8] 95 % of control

CCCCCCCC/C=C\CCCCCCCC(=O)O.[Cu+2]
inactive: [12] 105 % of control | [13] 96 % of control

Nc1ccc(N=Nc2ccc(OCCN(CCO)CCO)cc2)c(N)n1
inactive: [12] 93 % of control | [13] 98 % of control

Nc1nc(N)c(-c2ccc(Cl)c(Cl)c2)c(/C=C/C=C/c2cccnc2)n1
inactive: dose: 16.7 mg/kg/injection, schedule: Q01DX009 (ip), vehicle: saline with Tween-80 112 % of control | dose: 37.5 mg/kg/injection, schedule: Q01DX009 (ip), vehicle: saline with Tween-80 86 % of control

CC(=O)Oc1ccc(CCNC(c2ccccc2)c2ccccc2)cc1OC(C)=O
inactive: [12] 100 % of control | [13] 107 % of control | dose: 400.0 mg/kg/injection, schedule: Q01DX001 (ip), vehicle: saline 86 % of control

COc1ccc2c(c1OC)CN(C)CCc1cc3c(cc1C(=O)C2)OCO3
inactive: [14] 96 % of control | [15] 96 % of control | [16] 100 % of control

NCCc1c[nH]c2ccc(O)cc12 (tested in a mixture with another compound)
inactive: dose: 120.0 mg/kg/injection, schedule: Q01DX009 (ip), vehicle: carboxymethylcellulose (CMC) 107 % of control | [16] 108 % of control | dose: 600.0 mg/kg/injection, schedule: Q01DX001 (ip), vehicle: carboxymethylcellulose (CMC) 108 % of control | dose: 600.0 mg/kg/injection, schedule: Q01DX009 (ip), vehicle: carboxymethylcellulose (CMC) 102 % of control | dose: 800.0 mg/kg/injection, schedule: Q01DX001 (ip), vehicle: carboxymethylcellulose (CMC) 114 % of control | dose: 800.0 mg/kg/injection, schedule: Q01DX009 (ip), vehicle: carboxymethylcellulose (CMC) 119 % of control | dose: 1000.0 mg/kg/injection, schedule: Q01DX001 (ip), vehicle: carboxymethylcellulose (CMC) 106 % of control

COc1cccc(C2CCCCC2OS(=O)(=O)c2ccc(C)cc2)c1 (stereo not given)
inactive: dose: 100.0 mg/kg/injection, schedule: Q01DX001 (ip), vehicle: steriod suspending solution 106 % of control | dose: 200.0 mg/kg/injection, schedule: Q01DX001 (ip), vehicle: steriod suspending solution 101 % of control | dose: 400.0 mg/kg/injection, schedule: Q01DX001 (ip), vehicle: steriod suspending solution 91 % of control

CN(C)/C=N\N(c1ccccc1)c1ccccc1
inactive: [5] 106 % of control | dose: 200.0 mg/kg/injection, schedule: Q04DX002 (ip), vehicle: saline with Tween-80 98 % of control

Cc1ccc(NC2CNC(=O)NC2=O)cc1C (stereo not given)
inactive: dose: 100.0 mg/kg/injection, schedule: Q01DX Z (ip), vehicle: saline 91 % of control | dose: 200.0 mg/kg/injection, schedule: Q01DX Z (ip), vehicle: saline 87 % of control

O=c1ccccn1CC1(c2ccccc2)OCCO1
inactive: [9] 98 % of control | [2] 102 % of control | [10] 104 % of control | [3] 96 % of control | [11] 100 % of control | [4] 94 % of control

COc1ccccc1/C=N\NC(=O)C1CC1
inactive: dose: 15.0 mg/kg/injection, schedule: Q01DX Z (ip), vehicle: carboxymethylcellulose (CMC) 102 % of control | dose: 30.0 mg/kg/injection, schedule: Q01DX Z (ip), vehicle: carboxymethylcellulose (CMC) 97 % of control | dose: 60.0 mg/kg/injection, schedule: Q01DX Z (ip), vehicle: carboxymethylcellulose (CMC) 97 % of control and 101 % of control | dose: 120.0 mg/kg/injection, schedule: Q01DX Z (ip), vehicle: carboxymethylcellulose (CMC) 101 % of control and 102 % of control | dose: 240.0 mg/kg/injection, schedule: Q01DX Z (ip), vehicle: carboxymethylcellulose (CMC) 98 % of control | dose: 480.0 mg/kg/injection, schedule: Q01DX Z (ip), vehicle: carboxymethylcellulose (CMC) 101 % of control | dose: 480.0 mg/kg/injection, schedule: Q01DX Z (oral), vehicle: carboxymethylcellulose (CMC) 106 % of control | dose: 960.0 mg/kg/injection, schedule: Q01DX Z (oral), vehicle: carboxymethylcellulose (CMC) 93 % of control

COc1cc2c(cc1OC)C1CC3(CC4c5cc(OC)c(OC)cc5CCN4CC3CO)C(CO)CN1CC2 (stereo not given)
inactive: dose: 4.0 mg/kg/injection, schedule: Q04DX003 (ip), vehicle: water 101 % of control | dose: 8.0 mg/kg/injection, schedule: Q04DX003 (ip), vehicle: water 101 % of control | dose: 16.0 mg/kg/injection, schedule: Q04DX003 (ip), vehicle: water 110 % of control | dose: 32.0 mg/kg/injection, schedule: Q04DX003 (ip), vehicle: water 103 % of control | dose: 64.0 mg/kg/injection, schedule: Q04DX003 (ip), vehicle: water 101 % of control

CC(=O)Oc1ccc(C=O)cc1
inactive: dose: 50.0 mg/kg/injection, schedule: Q04DX003 (ip), vehicle: saline with Tween-80 96 % of control | [6] 91 % of control | [7] 96 % of control

CCOC(=O)NC(N)=O
inactive: dose: 50.0 mg/kg/injection, schedule: Q01DX001 (ip), vehicle: carboxymethylcellulose (CMC) 92 % of control | dose: 75.0 mg/kg/injection, schedule: Q01DX009 (ip), vehicle: saline 100 % of control | [14] 97 % of control | [2] 110 % of control | dose: 100.0 mg/kg/injection, schedule: Q04DX003 (ip), vehicle: saline 107 % of control | dose: 150.0 mg/kg/injection, schedule: Q01DX009 (ip), vehicle: saline 103 % of control | [15] 95 % of control | [3] 98 % of control | dose: 200.0 mg/kg/injection, schedule: Q04DX003 (ip), vehicle: saline 98 % of control | dose: 300.0 mg/kg/injection, schedule: Q01DX009 (ip), vehicle: saline 100 % of control | [16] 92 % of control | [4] 98 % of control | dose: 400.0 mg/kg/injection, schedule: Q04DX003 (ip), vehicle: saline 102 % of control

CCCN(CCC)NC(=O)c1ccc(N=NN(C)C)cc1
inactive: dose: 25.0 mg/kg/injection, schedule: Q01DX001 (ip), vehicle: other 106 % of control | dose: 50.0 mg/kg/injection, schedule: Q01DX001 (ip), vehicle: other 98 % of control | dose: 100.0 mg/kg/injection, schedule: Q01DX001 (ip), vehicle: other 106 % of control | [1] 101 % of control

O=C1CCCC/C1=C/c1ccccc1
inactive: [9] 102 % of control and 112 % of control | [2] 97 % of control and 96 % of control | [10] 102 % of control | [3] 104 % of control and 101 % of control | [11] 102 % of control and 96 % of control | [4] 104 % of control and 100 % of control
